Test results reported in paper PMC9067983, “Identification of highly selective type II kinase inhibitors with chiral peptidomimetic tails” (Journal of Enzyme Inhibition and Medicinal Chemistry, 2022).
Where a SMILES comes first, the peptide text is derived from it. [ ]: non-standard residue; d: D form. The star is where a group is joined. X1 = Cc1ccc(Nc2ncc3c(n2)N(C)C(=O)N(c2cc(C(=O)*)ccc2C)C3)cn1; Chg = N[C@H](C(=O)O)C1CCCCC1; Nva = CCC[C@H](N)C(=O)O; Aib = CC(C)(N)C(=O)O

Assays:
Lck = biological target: T1, Lck (Homo sapiens, UniProt P06239); test: In vitro kinase assay (IC50); format: biochemical
T1 construct: purchased Reaction Biology Corp
T1 sequence (P06239 whole entry): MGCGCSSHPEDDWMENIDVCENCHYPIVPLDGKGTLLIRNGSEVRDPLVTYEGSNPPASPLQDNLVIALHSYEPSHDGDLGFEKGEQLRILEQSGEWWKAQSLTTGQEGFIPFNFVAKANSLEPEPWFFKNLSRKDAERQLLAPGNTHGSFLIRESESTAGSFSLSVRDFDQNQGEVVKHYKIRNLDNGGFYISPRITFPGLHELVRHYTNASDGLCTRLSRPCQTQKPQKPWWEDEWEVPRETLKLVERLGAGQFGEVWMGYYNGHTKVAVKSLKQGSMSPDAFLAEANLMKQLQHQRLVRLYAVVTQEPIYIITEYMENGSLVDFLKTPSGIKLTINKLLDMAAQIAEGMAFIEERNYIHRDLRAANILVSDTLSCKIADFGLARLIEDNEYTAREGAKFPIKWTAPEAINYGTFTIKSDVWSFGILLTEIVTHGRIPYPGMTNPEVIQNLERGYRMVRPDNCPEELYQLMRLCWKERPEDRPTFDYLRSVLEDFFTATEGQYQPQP
Method: (§1) Full panel kinase profiling and kinase IC50 measurement were performed by using Reaction Biology Corp. (San Diego, USA).

c-Src = biological target: T2, c-Src (Homo sapiens, UniProt P12931); test: In vitro kinase assay (IC50); format: biochemical
T2 construct: purchased Reaction Biology Corp
T2 sequence (P12931 whole entry): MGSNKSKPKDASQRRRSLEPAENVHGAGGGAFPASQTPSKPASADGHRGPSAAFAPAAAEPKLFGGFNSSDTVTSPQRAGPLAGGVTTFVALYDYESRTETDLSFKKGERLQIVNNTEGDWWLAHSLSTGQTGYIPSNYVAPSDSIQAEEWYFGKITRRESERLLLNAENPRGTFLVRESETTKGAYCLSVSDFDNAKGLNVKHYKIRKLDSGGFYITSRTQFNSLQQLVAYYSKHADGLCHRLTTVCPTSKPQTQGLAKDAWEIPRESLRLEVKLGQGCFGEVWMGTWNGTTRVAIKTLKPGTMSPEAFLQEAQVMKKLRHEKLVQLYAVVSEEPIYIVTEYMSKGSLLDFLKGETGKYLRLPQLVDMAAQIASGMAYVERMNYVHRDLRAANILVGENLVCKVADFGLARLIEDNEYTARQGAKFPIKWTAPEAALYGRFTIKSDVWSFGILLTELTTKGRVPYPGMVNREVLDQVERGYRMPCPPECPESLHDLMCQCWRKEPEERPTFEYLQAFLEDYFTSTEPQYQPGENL
Method: as §1

Structure (SMILES)	IC50 (Lck)	IC50 (c-Src)	selectivity for Lck over c-Src (Lck)
Cc1ccc(Nc2ncc3c(n2)N(C)C(=O)N(c2cc(C(=O)N[C@H](C(=O)N4CCC[C@H]4C(=O)NC(C)(C)C(=O)N[C@H](C(=O)N(C)C)C(C)C)C(C)C)ccc2C)C3)cn1 [7n, (S)-N-(1-(((S)-1-(dimethylamino)-3-methyl-1-oxobutan-2-yl)amino)-2-methyl-1-oxopropan-2-yl)-1-((4-methyl-3-(1-methyl-7-((6-methylpyridin-3-yl)amino)-2-oxo-1,4-dihydropyrimido[4,5-d]pyrimidin-3(2H)-yl)benzoyl)-L-valyl)pyrrolidine-2-carboxamide] (X1-VP[Aib]V-NMe2)	727 nM	3140 nM	–
Cc1ccc(Nc2ncc3c(n2)N(C)C(=O)N(c2cc(C(=O)N[C@H](C(=O)N4CCC[C@@H]4C(=O)NC(C)(C)C(=O)N[C@H](C(=O)N(C)C)C(C)C)C(C)C)ccc2C)C3)cn1 [7o, (R)-N-(1-(((S)-1-(dimethylamino)-3-methyl-1-oxobutan-2-yl)amino)-2-methyl-1-oxopropan-2-yl)-1-((4-methyl-3-(1-methyl-7-((6-methylpyridin-3-yl)amino)-2-oxo-1,4-dihydropyrimido[4,5-d]pyrimidin-3(2H)-yl)benzoyl)-L-valyl)pyrrolidine-2-carboxamide] (X1-V[dP][Aib]V-NMe2)	1040 nM	> 10000 nM	–
CC[C@H](C)[C@H](NC(=O)c1ccc(C)c(N2Cc3cnc(Nc4ccc(C)nc4)nc3N(C)C2=O)c1)C(=O)N1CCC[C@H]1C(=O)NC(C)(C)C(=O)N[C@@H](CC(C)C)C(=O)N(C)C [7p, (S)-N-(1-(((S)-1-(dimethylamino)-4-methyl-1-oxopentan-2-yl)amino)-2-methyl-1-oxopropan-2-yl)-1-((4-methyl-3-(1-methyl-7-((6-methylpyridin-3-yl)amino)-2-oxo-1,4-dihydropyrimido[4,5-d]pyrimidin-3(2H)-yl)benzoyl)-L-isoleucyl)pyrrolidine-2-carboxamide] (X1-IP[Aib]L-NMe2)	55.6 nM	329 nM	–
Cc1ccc(Nc2ncc3c(n2)N(C)C(=O)N(c2cc(C(=O)N[C@@H](CC(C)C)C(=O)N4CCC[C@H]4C(=O)NC(C)(C)C(=O)N[C@@H](CC(C)C)C(=O)N(C)C)ccc2C)C3)cn1 [7q, (S)-N-(1-(((S)-1-(dimethylamino)-4-methyl-1-oxopentan-2-yl)amino)-2-methyl-1-oxopropan-2-yl)-1-((4-methyl-3-(1-methyl-7-((6-methylpyridin-3-yl)amino)-2-oxo-1,4-dihydropyrimido[4,5-d]pyrimidin-3(2H)-yl)benzoyl)-L-leucyl)pyrrolidine-2-carboxamide] (X1-LP[Aib]L-NMe2)	15.4 nM	174 nM	> 10 fold
Cc1ccc(Nc2ncc3c(n2)N(C)C(=O)N(c2cc(C(=O)NCC(=O)N4CCC[C@H]4C(=O)NC(C)(C)C(=O)N[C@@H](CC(C)C)C(=O)N(C)C)ccc2C)C3)cn1 [7r, (S)-N-(1-(((S)-1-(dimethylamino)-4-methyl-1-oxopentan-2-yl)amino)-2-methyl-1-oxopropan-2-yl)-1-((4-methyl-3-(1-methyl-7-((6-methylpyridin-3-yl)amino)-2-oxo-1,4-dihydropyrimido[4,5-d]pyrimidin-3(2H)-yl)benzoyl)glycyl)pyrrolidine-2-carboxamide] (X1-GP[Aib]L-NMe2)	216 nM	577 nM	–
Cc1ccc(Nc2ncc3c(n2)N(C)C(=O)N(c2cc(C(=O)N[C@H](C(=O)N4CCC[C@H]4C(=O)NC(C)(C)C(=O)N[C@@H](CC(C)C)C(=O)N(C)C)C4CCCCC4)ccc2C)C3)cn1 [7s, (S)-1-((S)-2-cyclohexyl-2-(4-methyl-3-(1-methyl-7-((6-methylpyridin-3-yl)amino)-2-oxo-1,4-dihydropyrimido[4,5-d]pyrimidin-3(2H)-yl)benzamido)acetyl)-N-(1-(((S)-1-(dimethylamino)-4-methyl-1-oxopentan-2-yl)amino)-2-methyl-1-oxopropan-2-yl)pyrrolidine-2-carboxamide] (X1-[Chg]P[Aib]L-NMe2)	36 nM	435 nM	> 10 fold
CCC[C@H](NC(=O)c1ccc(C)c(N2Cc3cnc(Nc4ccc(C)nc4)nc3N(C)C2=O)c1)C(=O)N1CCC[C@H]1C(=O)NC(C)(C)C(=O)N[C@@H](CC(C)C)C(=O)N(C)C [7t, (S)-N-(1-(((S)-1-(dimethylamino)-4-methyl-1-oxopentan-2-yl)amino)-2-methyl-1-oxopropan-2-yl)-1-((S)-2-(4-methyl-3-(1-methyl-7-((6-methylpyridin-3-yl)amino)-2-oxo-1,4-dihydropyrimido[4,5-d]pyrimidin-3(2H)-yl)benzamido)pentanoyl)pyrrolidine-2-carboxamide] (X1-[Nva]P[Aib]L-NMe2)	70.8 nM	477 nM	–
Cc1ccc(Nc2ncc3c(n2)N(C)C(=O)N(c2cc(C(=O)N[C@H](C(=O)N4CCC[C@H]4C(=O)NC(C)(C)C(=O)NCC(=O)N(C)C)C(C)C)ccc2C)C3)cn1 [7u, (S)-N-(1-((2-(dimethylamino)-2-oxoethyl)amino)-2-methyl-1-oxopropan-2-yl)-1-((4-methyl-3-(1-methyl-7-((6-methylpyridin-3-yl)amino)-2-oxo-1,4-dihydropyrimido[4,5-d]pyrimidin-3(2H)-yl)benzoyl)-L-valyl)pyrrolidine-2-carboxamide] (X1-VP[Aib]G-NMe2)	174 nM	1140 nM	–
Cc1ccc(Nc2ncc3c(n2)N(C)C(=O)N(c2cc(C(=O)N[C@H](C(=O)N4CCC[C@@H]4C(=O)N[C@H](C(=O)N[C@H](C)c4ccccc4)C(C)C)C(C)C)ccc2C)C3)cn1 [7v, (R)-N-((S)-3-methyl-1-oxo-1-(((R)-1-phenylethyl)amino)butan-2-yl)-1-((4-methyl-3-(1-methyl-7-((6-methylpyridin-3-yl)amino)-2-oxo-1,4-dihydropyrimido[4,5-d]pyrimidin-3(2H)-yl)benzoyl)-L-valyl)pyrrolidine-2-carboxamide]	403 nM	5630 nM	–
Cc1ccc(Nc2ncc3c(n2)N(C)C(=O)N(c2cc(C(=O)N[C@@H](Cc4ccccc4)C(=O)N4CCC[C@@H]4C(=O)N[C@H](C(=O)N[C@H](C)c4ccccc4)C(C)C)ccc2C)C3)cn1 [7w, (R)-N-((S)-3-methyl-1-oxo-1-(((R)-1-phenylethyl)amino)butan-2-yl)-1-((4-methyl-3-(1-methyl-7-((6-methylpyridin-3-yl)amino)-2-oxo-1,4-dihydropyrimido[4,5-d]pyrimidin-3(2H)-yl)benzoyl)-L-phenylalanyl)pyrrolidine-2-carboxamide]	129 nM	585 nM	–
Cc1ccc(Nc2ncc3c(n2)N(C)C(=O)N(c2cc(NC(=O)c4ccc5c(c4)NC(=O)[C@@H](Cc4ccccc4)N=C5c4ccccc4)ccc2C)C3)cn1 [11f, (R)-3-benzyl-N-(4-methyl-3-(1-methyl-7-((6-methylpyridin-3-yl)amino)-2-oxo-1,4-dihydropyrimido[4,5-d]pyrimidin-3(2H)-yl)phenyl)-2-oxo-5-phenyl-2,3-dihydro-1H-benzo[e][1,4]diazepine-8-carboxamide]	18.7 nM	62.6 nM	–
Cc1ccc(Nc2ncc3c(n2)N(C)C(=O)N(c2cc(NC(=O)c4ccc5c(c4)NC(=O)[C@H](Cc4ccc(F)cc4)N=C5c4ccccc4)ccc2C)C3)cn1 [11g, (S)-3-(4-fluorobenzyl)-N-(4-methyl-3-(1-methyl-7-((6-methylpyridin-3-yl)amino)-2-oxo-1,4-dihydropyrimido[4,5-d]pyrimidin-3(2H)-yl)phenyl)-2-oxo-5-phenyl-2,3-dihydro-1H-benzo[e][1,4]diazepine-8-carboxamide]	42.1 nM	134 nM	–
Cc1ccc(Nc2ncc3c(n2)N(C)C(=O)N(c2cc(NC(=O)c4ccc5c(c4)N(C)C(=O)[C@H](CC(C)C)N=C5c4ccccc4)ccc2C)C3)cn1 [11h, (S)-3-isobutyl-1-methyl-N-(4-methyl-3-(1-methyl-7-((6-methylpyridin-3-yl)amino)-2-oxo-1,4-dihydropyrimido[4,5-d]pyrimidin-3(2H)-yl)phenyl)-2-oxo-5-phenyl-2,3-dihydro-1H-benzo[e][1,4]diazepine-8-carboxamide]	24.6 nM	135 nM	–
C=CCN1C(=O)[C@H](CC(C)C)N=C(c2ccccc2)c2ccc(C(=O)Nc3ccc(C)c(N4Cc5cnc(Nc6ccc(C)nc6)nc5N(C)C4=O)c3)cc21 [11i, (S)-1-allyl-3-isobutyl-N-(4-methyl-3-(1-methyl-7-((6-methylpyridin-3-yl)amino)-2-oxo-1,4-dihydropyrimido[4,5-d]pyrimidin-3(2H)-yl)phenyl)-2-oxo-5-phenyl-2,3-dihydro-1H-benzo[e][1,4]diazepine-8-carboxamide]	49.3 nM	222 nM	–
Cc1ccc(Nc2ncc3c(n2)N(C)C(=O)N(c2cc(NC(=O)c4ccc5c(c4)N(CC(C)C)C(=O)[C@H](CC(C)C)N=C5c4ccccc4)ccc2C)C3)cn1 [11j, (S)-1,3-diisobutyl-N-(4-methyl-3-(1-methyl-7-((6-methylpyridin-3-yl)amino)-2-oxo-1,4-dihydropyrimido[4,5-d]pyrimidin-3(2H)-yl)phenyl)-2-oxo-5-phenyl-2,3-dihydro-1H-benzo[e][1,4]diazepine-8-carboxamide]	132 nM	461 nM	–
CC1=N[C@@H](Cc2ccccc2)C(=O)Nc2cc(C(=O)Nc3ccc(C)c(N4Cc5cnc(Nc6ccc(C)nc6)nc5N(C)C4=O)c3)ccc21 [11k, (S)-3-benzyl-5-methyl-N-(4-methyl-3-(1-methyl-7-((6-methylpyridin-3-yl)amino)-2-oxo-1,4-dihydropyrimido[4,5-d]pyrimidin-3(2H)-yl)phenyl)-2-oxo-2,3-dihydro-1H-benzo[e][1,4]diazepine-8-carboxamide]	3.57 nM	27.1 nM	–
CC1=N[C@H](Cc2ccccc2)C(=O)Nc2cc(C(=O)Nc3ccc(C)c(N4Cc5cnc(Nc6ccc(C)nc6)nc5N(C)C4=O)c3)ccc21 [11l, (R)-3-benzyl-5-methyl-N-(4-methyl-3-(1-methyl-7-((6-methylpyridin-3-yl)amino)-2-oxo-1,4-dihydropyrimido[4,5-d]pyrimidin-3(2H)-yl)phenyl)-2-oxo-2,3-dihydro-1H-benzo[e][1,4]diazepine-8-carboxamide]	4.63 nM	19.6 nM	–
